Results published in patent US20110312961A1, “2,5-Disubstituted Morpholine Orexin REceptor Antagonists” (priority 2008, published 2011).

Tests used:
[1] = target: T1, human native ganglion-type nicotinic receptors (likely α3β4) (Homo sapiens, UniProt P30926+P32297); experiment: [3H]epibatidine binding, SH-SY5Y membranes; settings: read-out: Human ganglionic (SH-SY5Y), Ki
T1 construct: human native ganglion-type nicotinic receptors (likely α3β4); endogenous in cells; host or cells: SH-SY5Y

[2] = target: T2, human recombinant α4β4 nicotinic receptors (Homo sapiens, UniProt P30926+P43681); experiment: [3H]epibatidine binding, SH-EP1 membranes
T2 construct: expressed in transfected cells; host or cells: SH-EP1
T2 sequence (P43681 29-627 limits assumed): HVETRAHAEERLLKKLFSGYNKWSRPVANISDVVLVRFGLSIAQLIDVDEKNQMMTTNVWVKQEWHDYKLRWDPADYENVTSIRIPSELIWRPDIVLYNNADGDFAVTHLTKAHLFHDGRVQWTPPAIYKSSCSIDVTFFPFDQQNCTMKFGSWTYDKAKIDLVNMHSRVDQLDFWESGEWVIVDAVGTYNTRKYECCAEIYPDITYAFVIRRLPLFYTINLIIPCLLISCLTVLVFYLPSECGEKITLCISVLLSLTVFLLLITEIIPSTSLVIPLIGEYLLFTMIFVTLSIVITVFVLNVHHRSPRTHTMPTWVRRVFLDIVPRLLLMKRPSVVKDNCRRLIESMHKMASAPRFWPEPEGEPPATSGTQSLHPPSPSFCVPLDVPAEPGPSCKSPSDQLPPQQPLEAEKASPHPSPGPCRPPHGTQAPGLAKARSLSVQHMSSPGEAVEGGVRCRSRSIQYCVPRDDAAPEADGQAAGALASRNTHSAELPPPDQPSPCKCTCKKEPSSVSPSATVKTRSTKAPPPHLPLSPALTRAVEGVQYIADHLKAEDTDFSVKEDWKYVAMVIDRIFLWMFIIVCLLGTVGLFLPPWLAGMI
T2 sequence (P30926 22-498): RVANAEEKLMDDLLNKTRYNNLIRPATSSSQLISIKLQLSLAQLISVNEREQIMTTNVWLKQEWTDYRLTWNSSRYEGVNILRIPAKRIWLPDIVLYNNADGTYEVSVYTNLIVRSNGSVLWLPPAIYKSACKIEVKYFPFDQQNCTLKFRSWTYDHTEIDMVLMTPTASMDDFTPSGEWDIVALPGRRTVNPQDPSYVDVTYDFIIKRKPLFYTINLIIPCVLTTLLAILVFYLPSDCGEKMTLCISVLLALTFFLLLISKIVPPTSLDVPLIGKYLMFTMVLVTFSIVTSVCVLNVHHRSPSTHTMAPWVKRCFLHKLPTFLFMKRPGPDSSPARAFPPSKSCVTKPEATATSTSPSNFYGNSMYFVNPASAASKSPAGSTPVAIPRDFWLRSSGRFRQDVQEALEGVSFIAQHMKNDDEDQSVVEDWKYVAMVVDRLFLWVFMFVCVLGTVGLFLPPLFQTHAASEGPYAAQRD

normal rats = experiment: Novel object recognition (NOR) task; format: in vivo, rat; settings: for Minimum Effective Dose (MED): oral, rats (FIG. 2)
Experimental: Memory was assessed by using the three-trial novel object recognition test. On the first day (exploratory trial), rats were allowed to explore an open arena (44.5×44.5×30.5 cm) for 6 min. On the second day (acquisition trial), rats were allowed to explore the same arena in the presence of two identical objects (both object A) for 3 minutes. On the third day (retention or recall trial), performance was evaluated by allowing the same animal to re-explore the arena for 3 minutes in the presence of two different objects: the familiar object A and a novel object B. An inter-trial interval of 24 hours was imposed between the three NOR trials. Recognition memory was assessed by comparing the time spent exploring a novel (object B) versus a familiar (object A) object during the recall trial. Recognition index was assessed for each animal and expressed as a ratio ((time B/time A+time B)×100).

[3] = tested on: STZ rat model of diabetic neuropathy; experiment: Streptozotocin (STZ)-induced diabetic neuropathy, Von Frey allodynia; format: in vivo; settings: for allodynia (Von Frey): 30 minutes after administration
Excerpt: Peripheral neuropathy, a major complication of diabetes, often results in spontaneous pain or the perception of pain from contact with a normally non-noxious stimulus. Such neuropathic pain is experienced by 20-24% of diabetic patients, or approximately 30 million people worldwide (Schmader, 2002). The streptozotocin (STZ)-induced diabetes model in rats provides a means to evaluate the efficacy of test compounds that offer therapeutic potential for peripheral neuropathy and to understand their putative mechanism of action. In this model, a single injection of STZ, an antibiotic that mimics clinical diabetes by causing irreversible damage to the pancreatic β and α-cells leads to chronic hyperglycemia, nerve dysfunction and pain sensitivity. The current study utilizes the STZ rat model of diabetic neuropathy to investigate the effects of (2S,3R)—N-2-((3-pyridinyl)methyl)-1-azabicyclo[2.2.2]oct-3-yl)-3,5-difluorobenzamide on mechanical allodynia, an assessment of pain.
Diabetes was induced by a 0.5 ml injection of streptozotocin (60 mg/kg) dissolved in citrate buffer (pH) into the tail vein of each rat The development of diabetes was confirmed by measuring the blood glucose levels (BGL) of all animals on study day 3 (BGL>300 mg/dL). […] These animals were tested again for their BGL at study day 23.
(2S,3R)—N-2-((3-pyridinyl)methyl)-1-azabicyclo[2.2.2]oct-3-yl)-3,5-difluorobenzamide (0.1, 1 or 10 mg/kg p.o.) was administered as a solution of the hydrochloride salt in water once daily starting on study day 14 or study day 16 and continuing through study day 21 or 23, respectively. The control article gabapentin (in 0.9% saline, 150 mg/kg i.p.) was only administered on allodynia test days. Test item, vehicle or control article administration was based on evaluation of allodynia on study day 14. If allodynia was not present on study day 14, the animal was evaluated again at study day 16. Pain response was measured either on study days 14 and 21 or 16 and 23, 30 minutes after Test Item administration.
For the allodynia assessments, Von Frey filaments were used according to the methods of Chaplan and colleagues (1994). Briefly, the rats were placed in an enclosure and positioned on a metal mesh surface, but allowed to move freely. The rats' cabins were covered with red cellophane to diminish environmental distributions. The test began after cessation of exploratory behavior.
When the tip of a Von Frey fiber of given length and diameter was pressed against the skin at right angles, the force of application increases as long as the researcher continued to advance the probe until the fiber bent. After the fiber bent, the probe was advanced, causing the fiber to bend more, but without additional force being applied. The animal would indicate sensation by pulling back its paw. In the absence of a paw withdrawal response to the initially selected filament, a stronger stimulus was presented; in the event of paw withdrawal, the next weaker stimulus was chosen. In this fashion, the resulting pattern of positive and negative responses was used to determine the paw withdrawal threshold.
The set of Von Frey monofilaments provide an approximate logarithmic scale of actual force and a linear scale of perceived intensity. Below is a table showing the force (g) and its corresponding size of monofilaments.
All normally distributed data are presented as means±SEM, as well as the animals' individual values followed by a student T-test (Software: Microsoft® Excel). A p value <0.05 is considered to represent a significant difference. Due to the non-normal distribution of the allodynia data, descriptions of those data are provided as both mean (±SEM) and median values in order to represent their imprecise nature and skewed distribution.

db/db mouse = experiment: Murine model of type 2 diabetes mellitus (db/db); format: in vivo
Excerpt: The db/db mouse, a well established model of type 2 diabetes mellitus, is a leptin-deficient mutant that expresses an obese phenotype and also commonly expresses metabolic symptoms including hyperglycemia, hyperlipidemia and hyperinsulinemia (Halaas et al., 1995 and Lee et al., 1996). This experimental animal model of diabetes was employed in a study designed to determine the effects of (2S,3R)—N-2-((3-pyridinyl)methyl)-1-azabicyclo[2.2.2]oct-3-yl)-3,5-difluorobenzamide on body mass and several additional metabolic parameters.
In this study, (2S,3R)—N-2-((3-pyridinyl)methyl)-1-azabicyclo[2.2.2]oct-3-yl)-3,5-difluorobenzamide was repeatedly administered orally (via gavage) at 1.0 mg/kg once daily starting from the age of approximately 3 weeks and continuing throughout the 7-week study. Nondiabetic heterozygote littermate mice (db/+; designated “Db”) were used as controls. Body weight and food intake were determined twice weekly. The α7 antagonist methyllycaconitine (MLA) was also given concurrently via gavage at 3 mg/kg daily to selected cohorts of db/db (designated “db”) or db/+mice. At the end of the 7-week dosing regimen, total growth rates (overall body weight gain) and average daily food intake were calculated. In addition, glucose levels were assessed in mice fasted overnight. Furthermore, blood sample analytes from mice fasted overnight were collected for measurements of tumor necrosis factor-a (TNF-α), triglycerides and glycosylated hemoglobin (HbA1c). All data are expressed as mean±SEM. For each parameter investigated, differences among all groups were compared by one-way ANOVA with post-hoc Neuman-Keuls multiple comparison test.

T1 sequence (P32297 32-505): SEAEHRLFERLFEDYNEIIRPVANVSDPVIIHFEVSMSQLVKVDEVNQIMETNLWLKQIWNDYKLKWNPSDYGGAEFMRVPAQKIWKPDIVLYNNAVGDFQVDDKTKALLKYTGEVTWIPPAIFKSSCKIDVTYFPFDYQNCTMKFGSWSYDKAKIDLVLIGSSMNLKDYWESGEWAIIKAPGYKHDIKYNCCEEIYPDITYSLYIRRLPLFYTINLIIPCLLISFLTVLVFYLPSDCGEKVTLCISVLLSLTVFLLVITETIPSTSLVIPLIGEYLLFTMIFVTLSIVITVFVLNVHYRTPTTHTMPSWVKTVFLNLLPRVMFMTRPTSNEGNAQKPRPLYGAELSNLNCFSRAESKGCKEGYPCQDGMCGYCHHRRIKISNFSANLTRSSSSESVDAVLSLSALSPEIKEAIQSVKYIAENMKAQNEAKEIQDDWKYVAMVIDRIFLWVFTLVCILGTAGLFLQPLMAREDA
T1 sequence (P30926 22-498): as the sequence (P30926 22-498) above

Compound: O=C(N[C@@H]1C2CCN(CC2)[C@H]1Cc1cccnc1)c1cc(F)cc(F)c1 [Compound A]
- Ki [1]: 48 µM
- Ki [2]: 19 µM
- lowest dose with statistically significant effect (normal rats; NOR vs. dose, FIG. 1): 0.1 mg/kg
- lowest dose with statistically significant effect (normal rats; NOR, FIGS. 1-4): 0.03 µM/kg
- effects observed out to, after dosing (normal rats; NOR, FIGS. 1-4, dose not given in the sentence): ≤ 18 h
- lowest dose with statistically significant effect (normal rats; NOR, determination of minimum effective dose, FIG. 2): 0.03 mg/kg
- Minimum Effective Dose (MED) (normal rats; NOR, listed as (2S,3R)-N-2-((3-pyridinyl)methyl)-1-azabicyclo[2.2.2]oct-3-yl)-3,5-difluorobenza): MED = 0.084 μmol/kg
- Minimum Effective Dose (MED) (normal rats; NOR, listed as (2S,3R)—N-2-((3-pyridinyl)methyl)-1-azabicyclo[2.2.2]oct-3-yl)-3,5-difluorobenza): 0.084 µmol/kg
- effect in "recall only" session (normal rats; single oral administration of 0.28 μmol/kg on day 3): demonstrated pro-cognitive effects
- allodynia (Von Frey) ([3]; 1 mg/kg p.o., study days 14/16, p<0.01 vs pretreatment, p<0.05 vs Vehicle): inhibited allodynia
- allodynia (Von Frey) ([3]; 1 mg/kg p.o., study days 21/23, p=0.012 vs pretreatment): inhibited allodynia
- allodynia (Von Frey) ([3]; 10 mg/kg p.o., study days 14/16, p=0.012 vs pretreatment): inhibited allodynia
- allodynia (Von Frey) ([3]; 10 mg/kg p.o., study days 21/23, p<0.05 vs Vehicle): inhibited allodynia
- diabetic neuropathy pain, Von Frey assessment ([3]; doses of 1 mg/kg and 10 mg/kg compared to Vehicle, FIG. 14): effective in reducing diabetic neuropathy pain
- food consumption (db/db mouse; lean (db/+) mice, 1.0 mg/kg oral daily, FIG. 16): unaffected
- total body weight gain (db/db mouse; obese db/db mice, 1.0 mg/kg oral daily, 7 weeks, FIG. 15): significantly lower
- average food consumption (db/db mouse; obese db/db mice, 1.0 mg/kg oral daily, 7 weeks, vs obese controls, FIG. 16): significantly lower
- all parameters measured (db/db mouse; obese db/db mice, 1.0 mg/kg oral once daily, 7 weeks, vs vehicle-treated obese db/db): significant decrease in all parameters measured
- fasting plasma glucose levels (db/db mouse; obese mice, 1.0 mg/kg oral daily, 7 weeks, FIG. 17): significantly inhibited
- glycosylated HbA1c levels (db/db mouse; obese mice, 1.0 mg/kg oral daily, 7 weeks, FIG. 18): significantly inhibited
- pro-inflammatory cytokine TNF alpha (db/db mouse; obese mice, 1.0 mg/kg oral daily, 7 weeks, FIG. 19): significantly reduced
- triglyceride levels (db/db mouse; obese mice, 1.0 mg/kg oral daily, 7 weeks, vs vehicle-treated controls, FIG. 20): significantly lower
